{
  "source": "paper PMC5334642",
  "about": "“A Peptide Amphiphile Organogelator of Polar Organic Solvents” (Scientific Reports, 2017)",
  "key": {"[1]": {"assay": "Gelation by inversion test", "settings": "for minimum gel concentration (MGC): inversion test"}, "[2]": {"assay": "Solubility in water and organic solvents"}, "[3]": {"settings": "hydrogel of similar PA; cited from earlier work", "description": "This is consistent with previous findings that increasing the proportion of valines in the β-sheet forming region of a PA results in an increase in gel stiffness. With PAs such as […]16, the β-sheet signal in the CD spectrum is red-shifted by a magnitude that inversely correlates with gel stiffness, and this has been attributed to the extent of twisting of the sheets, i.e., stiffer gels involve stronger peptide interactions with the least t ..."}, "[4]": {"assay": "Rheology of the gels (strain sweep, frequency sweep, thixotropic test)", "type": "physicochemical", "method": "[…]-C8 therefore forms a very stiff but brittle gel.\nAn aliquot (550 μL) of this solution was then cast onto an Anton Paar MCR 302 rheometer (parallel plate geometry, 25 mm diameter, 1 mm gap) and left to gel over the course of 4 h. A solvent trap and Peltier hood was used to prevent any evaporation during gelation. Frequency sweeps were performed from 0.1–10 Hz, at a constant strain of 0.2% and three repeats performed on separate samples. Strain sweeps were performed from 0.1–100% at a constant frequency of 1 Hz."}},
  "data": [
    {"substance": "N- Val3-His-Gly-Val3", "values": [
      {"measurement": "gelation of acetonitrile/water solutions", "setting": "[1]; acetonitrile/water mixtures", "value": "did not gelate"},
      {"measurement": "solubility in acetonitrile/water mixtures", "setting": "[2]; mixtures of acetonitrile and water, VVVGHVVV-C8 with sonication", "value": "soluble"},
      {"measurement": "solubility in water", "setting": "[2]; water, regardless of pH, temperature and sonication", "value": "peculiarly soluble in water"}
    ]},
    {"substance": "EEEAAAVVV-C16 [previously reported hydrogel-forming peptide amphiphile studied by the Stupp and Nguyen groups]", "values": [
      {"measurement": "gel stiffness", "setting": "[3]", "value": "< 10^4 Pa"}
    ]},
    {"substance": "N-Octanoic acid-Val3-His-Gly-Val3", "values": [
      {"measurement": "gel stiffness (approximated by G')", "setting": "[4]; 0.20 wt.% gel in 50% acetonitrile/water, frequency sweep 0.1-10 Hz at constant 0.2% strain, three repeats on separate samples", "value": "1.5 × 10^5 Pa"},
      {"measurement": "cross-over point under oscillatory strain", "setting": "[4]; DMF organogel", "value": "no cross-over point observed"},
      {"measurement": "strain at which mechanical properties deviate from the linear viscoelastic region", "setting": "[4]; gel from 0.20 wt.% solution in 50% acetonitrile/water, strain sweep 0.1-100% at constant frequency of 1 Hz", "value": "less than 1 % strain"},
      {"measurement": "cross-over point from gel to liquid (G' = G'')", "setting": "[4]; gel from 0.20 wt.% solution in 50% acetonitrile/water, strain sweep at constant frequency of 1 Hz", "value": 3, "unit": "% strain"},
      {"measurement": "minimum gel concentration (MGC)", "setting": "[1]; DMF", "value": 0.06, "unit": "wt.%"},
      {"measurement": "minimum gel concentration (MGC)", "setting": "[1]; acetone", "value": 0.06, "unit": "wt.%"},
      {"measurement": "gel formation in chloroform", "setting": "[1]; chloroform solution", "value": "did not form gels"},
      {"measurement": "gel formation in dichloromethane", "setting": "[1]; dichloromethane solution", "value": "did not form gels"},
      {"measurement": "gel formation in dimethyl sulfoxide", "setting": "[1]; dimethyl sulfoxide solution", "value": "did not form gels"},
      {"measurement": "gel formation in ethanol", "setting": "[1]; ethanol solution", "value": "did not form gels"},
      {"measurement": "gel formation in isopropanol", "setting": "[1]; isopropanol solution", "value": "did not form gels"},
      {"measurement": "gel formation in methanol", "setting": "[1]; methanol solution", "value": "did not form gels"},
      {"measurement": "gel formation in toluene", "setting": "[1]; toluene solution", "value": "did not form gels"},
      {"measurement": "solubility in DMF", "setting": "[2]; DMF", "value": "dissolved"},
      {"measurement": "solubility in acetonitrile", "setting": "[2]; acetonitrile", "value": "insoluble"},
      {"measurement": "solubility in dichloromethane", "setting": "[2]; dichloromethane", "value": "dissolved"},
      {"measurement": "solubility in dimethyl sulfoxide", "setting": "[2]; dimethyl sulfoxide", "value": "dissolved"},
      {"measurement": "solubility in ethyl acetate", "setting": "[2]; ethyl acetate, heating to reflux temperatures and sonicating for up to one hour", "value": "did not dissolve"}
    ]}
  ]
}
